In patent US11020395B2, “Cycloalkyl substituted triazole compounds as agonists of the APJ receptor” (AMGEN INC., priority 2016, dated 2021):

Target: human APJ receptor (Homo sapiens (Human), UniProt P35414)
Assay: [35S]GTPγS binding assay on membranes from CHO cells stably expressing human APJ receptor
Format: biochemical
Conditions: [35S]GTPγS SPA, read-out: Activity hAPJ SPA EC50 IP
Method: [^35S]GTPγS Binding The human APJ receptor was cloned by polymerase chain reaction and the gene encoding the receptor was subcloned in pFLAG-CMV™-3 expression vector (Sigma, Saint Louis, Mo. USA) in-house at Amgen. A GTPγS binding assay was performed on membranes prepared from CHO cells stably expressing human APJ receptor. The optimum experimental conditions for the concentrations of GDP, MgCl2, and NaCl in the assay buffer were initially determined. […] Incubation was at RT for 90 min and the microplate was read using a ViewLux™ ultra HTS Microplate Imager (PerkinElmer, Inc.). All the results presented are means of several independent experiments and analyzed by non-linear regression methods using the commercially available program Prism (GraphPad, San Diego, Calif.) providing the EC50 values detailed in Table 25.

Chain of human APJ receptor (P35414 whole entry): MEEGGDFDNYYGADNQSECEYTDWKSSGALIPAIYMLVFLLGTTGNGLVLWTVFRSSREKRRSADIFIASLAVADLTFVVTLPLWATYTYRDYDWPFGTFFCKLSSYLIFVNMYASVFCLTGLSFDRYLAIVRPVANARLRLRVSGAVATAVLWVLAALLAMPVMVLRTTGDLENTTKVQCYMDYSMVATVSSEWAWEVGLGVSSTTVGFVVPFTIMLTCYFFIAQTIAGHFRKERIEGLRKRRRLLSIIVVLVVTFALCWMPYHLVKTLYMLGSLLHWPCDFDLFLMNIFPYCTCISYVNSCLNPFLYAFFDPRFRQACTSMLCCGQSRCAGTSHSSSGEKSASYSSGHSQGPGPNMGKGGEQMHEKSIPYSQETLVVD

Molecule	EC50
COc1ncnc(OC)c1-n1c(NS(=O)(=O)[C@@H](C)[C@H](OC)c2ncc(Cl)cn2)nnc1[C@H]1CC[C@@H]1F (single isomer, unassigned) [Example 182.0, (1R,2S)-1-(5-chloropyrimidin-2-yl)-N-(4-(4,6-dimethoxypyrimidin-5-yl)-5-((1R,2S)-2-fluorocyclobutyl)-4H-1,2,4-triazol-3-yl)-1-methoxypropane-2-sulfonamide or (1R,2S)-1-(5-chloropyrimidin-2-yl)-N-(4-(4,6-dimethoxypyrimidin-5-yl)-5-((1S,2R)-2-fluorocyclobutyl)-4H-1,2,4-triazol-3-yl)-1-methoxypropane-2-sulfonamide]	10 nM
COc1cccc(OC)c1-n1c(NS(=O)(=O)[C@@H](C)[C@H](OC)c2ncc(Cl)cn2)nnc1[C@H]1C[C@@H](C#N)C1 (single isomer, unassigned) [Example 122.0, (1R,2S)-1-(5-chloro-2-pyrimidinyl)-N-(5-(cis-3-cyanocyclobutyl)-4-(2,6-dimethoxyphenyl)-4H-1,2,4-triazol-3-yl)-1-methoxy-2-propanesulfonamide or (1R,2S)-1-(5-chloro-2-pyrimidinyl)-N-(5-(trans-3-cyanocyclobutyl)-4-(2,6-dimethoxyphenyl)-4H-1,2,4-triazol-3-yl)-1-methoxy-2-propanesulfonamide]	28 nM
COc1ncnc(OC)c1-n1c(NS(=O)(=O)[C@@H](C)[C@H](C)c2cnc(C)cn2)nnc1C1CCC1 [Example 88.0, (2S,3R)-N-(5-cyclobutyl-4-(4,6-dimethoxy-5-pyrimidinyl)-4H-1,2,4-triazol-3-yl)-3-(5-methyl-2-pyrazinyl)-2-butanesulfonamide]	42 nM
COc1ncnc(OC)c1-n1c(NS(=O)(=O)[C@@H](C)[C@H](OC)c2ncc(Cl)cn2)nnc1[C@@H]1CC[C@@H]1F (single isomer, unassigned) [Example 180.0, (1R,2S)-1-(5-chloropyrimidin-2-yl)-N-(4-(4,6-dimethoxypyrimidin-5-yl)-5-((1S,2S)-2-fluorocyclobutyl)-4H-1,2,4-triazol-3-yl)-1-methoxypropane-2-sulfonamide or (1R,2S)-1-(5-chloropyrimidin-2-yl)-N-(4-(4,6-dimethoxypyrimidin-5-yl)-5-((1R,2R)-2-fluorocyclobutyl)-4H-1,2,4-triazol-3-yl)-1-methoxypropane-2-sulfonamide]	24 nM
COc1ncnc(OC)c1-n1c(NS(=O)(=O)[C@@H](C)[C@H](OC)c2ncc(Cl)cn2)nnc1[C@H]1C[C@@H](Cl)C1 (single isomer, unassigned) [Example 165.0, (1R,2S)-1-(5-chloropyrimidin-2-yl)-N-(4-(4,6-dimethoxypyrimidin-5-yl)-5-((1s,3R)-3-chlorocyclobutyl)-4H-1,2,4-triazol-3-yl)-1-methoxypropane-2-sulfonamide or (1R,2S)-1-(5-chloropyrimidin-2-yl)-N-(4-(4,6-dimethoxypyrimidin-5-yl)-5-((1r,3S)-3-chlorocyclobutyl)-4H-1,2,4-triazol-3-yl)-1-methoxypropane-2-sulfonamide]	9.7 nM
COc1ncnc(OC)c1-n1c(NS(=O)(=O)[C@@H](C)[C@H](OC)c2ncc(Cl)cn2)nnc1[C@H]1C[C@@H](C)C1 [Example 186.0, (1R,2S)-1-(5-chloro-2-pyrimidinyl)-N-(4-(4,6-dimethoxy-5-pyrimidinyl)-5-(cis-3-methylcyclobutyl)-4H-1,2,4-triazol-3-yl)-1-methoxy-2-propanesulfonamide]	0.89 nM
COc1ncnc(OC)c1-n1c(NS(=O)(=O)[C@@H](C)[C@H](OC)c2ccc(Cl)cn2)nnc1C1CCC1 (single isomer, unassigned) [Example 91.0, (1R,2S)-1-(5-chloropyridin-2-yl)-N-(5-cyclobutyl-4-(4,6-dimethoxypyrimidin-5-yl)-4H-1,2,4-triazol-3-yl)-1-methoxypropane-2-sulfonamide or (1S,2R)-1-(5-chloropyridin-2-yl)-N-(5-cyclobutyl-4-(4,6-dimethoxypyrimidin-5-yl)-4H-1,2,4-triazol-3-yl)-1-methoxypropane-2-sulfonamide]	2.9 nM
COc1ncnc(OC)c1-n1c(NS(=O)(=O)[C@@H](C)[C@H](OC)c2ncc(Cl)cn2)nnc1[C@H]1C[C@@H](C(F)(F)F)C1 (single isomer, unassigned) [Example 177.0, (1R,2S)-1-(5-chloropyrimidin-2-yl)-N-(4-(4,6-dimethoxypyrimidin-5-yl)-5-((1s,3R)-3-(trifluoromethyl)cyclobutyl)-4H-1,2,4-triazol-3-yl)-1-methoxypropane-2-sulfonamide or (1R,2S)-1-(5-chloropyrimidin-2-yl)-N-(4-(4,6-dimethoxypyrimidin-5-yl)-5-((1r,3S)-3-(trifluoromethyl)cyclobutyl)-4H-1,2,4-triazol-3-yl)-1-methoxypropane-2-sulfonamide]	23 nM
COc1cccc(OC)c1-n1c(NS(=O)(=O)[C@@H](C)[C@H](OC)c2ncc(Cl)cn2)nnc1[C@H]1CC[C@H](OC)C1 (single isomer, unassigned) [Example 214.0]	20 nM
COc1ncnc(OC)c1-n1c(NS(=O)(=O)[C@@H](C)[C@H](OC)c2ncc(Cl)cn2)nnc1[C@H]1CC[C@@H](F)CC1 (single isomer, unassigned) [Example 175.0, (1R,2S)-1-(5-chloropyrimidin-2-yl)-N-(4-(4,6-dimethoxypyrimidin-5-yl)-5-((1s,4R)-4-fluorocyclohexyl)-4H-1,2,4-triazol-3-yl)-1-methoxypropane-2-sulfonamide or (1R,2S)-1-(5-chloropyrimidin-2-yl)-N-(4-(4,6-dimethoxypyrimidin-5-yl)-5-((1r,4S)-4-fluorocyclohexyl)-4H-1,2,4-triazol-3-yl)-1-methoxypropane-2-sulfonamide]	59 nM
COCC(COC)n1c(NS(=O)(=O)[C@@H](C)[C@H](OC)c2ncc(Cl)cn2)nnc1[C@H]1C[C@H](CO)C1 (single isomer, unassigned) [Example 130.0, (1R,2S)-1-(5-chloropyrimidin-2-yl)-N-(4-(1,3-dimethoxypropan-2-yl)-5-((1r,3S)-3-(hydroxymethyl)cyclobutyl)-4H-1,2,4-triazol-3-yl)-1-methoxypropane-2-sulfonamide or (1R,2S)-1-(5-chloropyrimidin-2-yl)-N-(4-(1,3-dimethoxypropan-2-yl)-5-((1s,3R)-3-(hydroxymethyl)cyclobutyl)-4H-1,2,4-triazol-3-yl)-1-methoxypropane-2-sulfonamide]	1500 nM
(1R,2S)-1-(5-chloropyrimidin-2-yl)-N-(4-(4,6-dimethoxypyrimidin-5-yl)-5-((R)-6-oxaspiro[2.5]octan-1-yl)-4H-1,2,4-triazol-3-yl)-1-methoxypropane-2-sulfonamide or (1R,2S)-1-(5-chloropyrimidin-2-yl)-N-(4-(4,6-dimethoxypyrimidin-5-yl)-5-((S)-6-oxaspiro[2.5]octan-1-yl)-4H-1,2,4-triazol-3-yl)-1-methoxypropane-2-sulfonamide [Example 102.0]	160 nM
